Data: EPA's ToxValDB 9.5 (doi:10.2903/j.efsa.2005.32ar)
In brackets after ≈: the same amount, converted by molar mass.

Columns and labels:
Canidae = conditions: chronic; duration: 6 months; oral; Dog Other; clinical signs
Anas platyrhynchos = conditions: short-term; oral; feed; mortality
Apis mellifera = conditions: acute; duration: 48 hours; dermal; mortality
Tagia sp. = conditions: acute; mortality
Bibionidae = conditions: chronic/long-term; development
Daphnia magna = conditions: chronic/long-term; duration: 21 days; reproduction
Rattus norvegicus = conditions: reproduction developmental
Aphidius rhopalosiphi = experiment: LR50; higher = less toxic; conditions: acute; duration: 48 hours; mortality

## COP(=S)(OC)Oc1c(Cl)cc(C)cc1Cl [Tolclofos-methyl]
Colinus virginianus; acute, oral, mortality
  LD50: > 5000 mg/kg
Colinus virginianus; reproduction developmental
  NOEL: 49 mg/kg-day
Canidae
  NOAEL: 21 mg/kg-day
Anas platyrhynchos
  LC50: > 1620 mg/kg-day
Apis mellifera
  LD50: > 100 µg/piece
Mus musculus; acute, oral, mortality
  LD50: 3500 mg/kg
Mus musculus; chronic, duration: 2 years, clinical signs
  NOAEL: 6.4 mg/kg-day
Tagia sp.
  LC50: > 1000 mg/kg
Bibionidae
  NOEC: 0.25 mg/L
Daphnia magna
  NOEC: 0.026 mg/L
Oncorhynchus mykiss; acute, duration: 96 hours, mortality
  LC50: 0.69 µg/mL (≈ 2.29 µM)
Oncorhynchus mykiss; chronic/long-term, duration: 97 days, growth
  NOEC: 0.012 mg/L
Rattus norvegicus
  NOEC: 70.6 mg/kg-day
Aphidius rhopalosiphi
  LR50: 43.7 g/ha
